Laboratory results from ChEMBL document CHEMBL3085775, “Design, diversity-oriented synthesis and structure activity relationship studies of quinolinyl heterocycles as antimycobacterial agents” (Eur J Med Chem, 2013).
Converted amounts (≈) assume the structure as drawn.

Experiments:
A549 = experiment: Cytotoxicity against human A549 cells after 48 hrs by MTT assay; assay type: cell-based; conditions: A549, 48 h
[1] = system: Mycolicibacterium smegmatis; experiment: Antimycobacterial activity against Mycobacterium smegmatis MC2 155 ATCC 14468 after 32 hrs by turbidimetry; assay type: functional; conditions: MC2 155 ATCC 14468, 32 h

Cc1nc2ccccc2cc1-c1csc(N)n1
IC50 (A549): > 200 µM
MIC50 [1]: > 50 µg/mL

COc1ccc(C2CC(c3cc4ccccc4nc3C)=NN2C(C)=O)c(OC)c1OC (centres undefined)
IC50 (A549): 86.5 µg/mL
MIC90 [1]: 46.2 µg/mL (≈ 110 µM)

Cc1nc2ccccc2cc1C1=NN(c2ccccc2)C(c2ccc(Br)cc2)C1 (centres undefined)
IC50 (A549): 93 µg/mL
MIC90 [1]: > 70 µg/mL

COc1cc(C2CC(c3cc4ccccc4nc3C)=NN2c2ccccc2)cc(OC)c1OC (centres undefined)
IC50 (A549): > 200 µg/mL
MIC90 [1]: > 70 µg/mL

Cc1cc(C)n(C(=O)c2cc3ccccc3nc2C)n1
IC50 (A549): 97.9 µg/mL
MIC90 [1]: 24.1 µg/mL (≈ 90.9 µM)

Cc1nc2ccccc2cc1-c1cn2ccccc2n1
IC50 (A549): 118 µM
MIC50 [1]: > 50 µg/mL

Cc1nc2ccccc2cc1-c1nnc(-c2cn(-c3ccccc3)nc2-c2ccccc2)o1
IC50 (A549): > 200 µg/mL
MIC90 [1]: > 70 µg/mL

Cc1nc2ccccc2cc1-c1nnc(-c2ccccc2C(=O)O)o1
IC50 (A549): 106 µg/mL
MIC90 [1]: 43.3 µg/mL (≈ 131 µM)

CC(=O)N1N=C(c2cc3c(Cl)cccc3nc2C)CC1c1ccc(C)cc1 (centres undefined)
IC50 (A549): 166 µg/mL
MIC90 [1]: > 70 µg/mL

Cc1nc2ccccc2cc1-c1nnc(CCc2ccccc2)o1
IC50 (A549): 145 µM
MIC50 [1]: 35 µg/mL (≈ 111 µM)

Cc1nc2ccccc2cc1-c1nnc(-c2cccc(Oc3ccccc3)c2)o1
IC50 (A549): 146 µg/mL
MIC90 [1]: > 70 µg/mL

Cc1nc2ccccc2cc1-c1nnc(-c2ccc(F)c(C(F)(F)F)c2)o1
IC50 (A549): 93.3 µg/mL
MIC90 [1]: 47.5 µg/mL (≈ 127 µM)

COc1ccc(OC)c(C2CC(c3cc4ccccc4nc3C)=NN2C(C)=O)c1 (centres undefined)
IC50 (A549): 111 µg/mL
MIC90 [1]: > 70 µg/mL

COc1cc(-c2nnc(-c3cc4ccccc4nc3C)o2)cc(OC)c1OC
IC50 (A549): 113 µg/mL
MIC90 [1]: 61.9 µg/mL (≈ 164 µM)

COc1ccc(C2CC(c3cc4ccccc4nc3C)=NN2C(C)=O)cc1OC (centres undefined)
IC50 (A549): > 200 µg/mL
MIC90 [1]: > 70 µg/mL

CC(=O)N1N=C(c2cc3ccccc3nc2C)CC1c1ccc([N+](=O)[O-])cc1 (centres undefined)
IC50 (A549): > 200 µg/mL
MIC90 [1]: 50.7 µg/mL (≈ 135 µM)

COc1ccc(C2CC(c3cc4ccccc4nc3C)=NN2c2ccccc2)c(OC)c1OC (centres undefined)
IC50 (A549): 143 µg/mL
MIC90 [1]: 43.5 µg/mL (≈ 96 µM)

Cc1ccc(-c2nnc(-c3cc4ccccc4nc3C)o2)cc1
IC50 (A549): 175 µg/mL
MIC90 [1]: 35 µg/mL (≈ 116 µM)

CCOc1c(F)c(F)c(C2CC(c3cc4ccccc4nc3C)=NN2C(C)=O)c(F)c1F (centres undefined)
IC50 (A549): 115 µg/mL
MIC90 [1]: > 70 µg/mL

Cc1nc2ccccc2cc1-c1nnc(C(C)c2ccccc2)o1 (centres undefined)
IC50 (A549): 165 µg/mL
MIC90 [1]: 35.9 µg/mL (≈ 114 µM)

Cc1nc2ccccc2cc1C(=O)n1nc(C)c(C2CCCCO2)c1C (centres undefined)
IC50 (A549): 143 µg/mL
MIC90 [1]: > 70 µg/mL

Cc1nc2ccccc2cc1-c1cc[nH]n1
IC50 (A549): 138 µM
MIC50 [1]: 14.7 µg/mL (≈ 70.1 µM)

Cc1nc2ccccc2cc1C(=O)NN
IC50 (A549): 96.4 µM
MIC50 [1]: > 50 µg/mL

Cc1nc2ccccc2cc1-c1nnc(-c2ccc(OC(F)(F)F)cc2)o1
IC50 (A549): 91.1 µg/mL
MIC90 [1]: > 70 µg/mL

COc1ccc(C2CC(c3cc4ccccc4nc3C)=NN2C(C)=O)cc1 (centres undefined)
IC50 (A549): 116 µg/mL
MIC90 [1]: > 70 µg/mL

CC(=O)N1N=C(c2cc3ccccc3nc2C)CC1/C=C/c1ccccc1 (centres undefined)
IC50 (A549): 93.3 µg/mL
MIC90 [1]: > 70 µg/mL

COc1ccc(OC)c(-c2nnc(-c3cc4ccccc4nc3C)o2)c1
IC50 (A549): 134 µg/mL
MIC90 [1]: 29.2 µg/mL (≈ 84 µM)

CC(=O)N1N=C(c2cc3ccccc3nc2C)CC1c1cccc(Oc2nc(Cl)c(Cl)cc2Cl)c1 (centres undefined)
IC50 (A549): 72.7 µg/mL
MIC90 [1]: 64.9 µg/mL (≈ 123 µM)

CC(=O)N1N=C(c2cc3ccccc3nc2C)CC1c1ccc(N(C)C)cc1 (centres undefined)
IC50 (A549): 110 µg/mL
MIC90 [1]: > 70 µg/mL

CC(=O)N1N=C(c2cc3ccccc3nc2C)CC1c1ccc(C#N)cc1 (centres undefined)
IC50 (A549): > 200 µg/mL
MIC90 [1]: > 70 µg/mL

Cc1nc2ccccc2cc1-c1ccnc(N)n1
IC50 (A549): 94.2 µM
MIC50 [1]: > 50 µg/mL

CC(=O)N1N=C(c2cc3ccccc3nc2C)CC1c1ccc(Oc2nc(Cl)c(Cl)cc2Cl)cc1 (centres undefined)
IC50 (A549): > 200 µg/mL
MIC90 [1]: > 70 µg/mL

COc1cc(C2CC(c3cc4ccccc4nc3C)=NN2C(C)=O)cc(OC)c1OC (centres undefined)
IC50 (A549): > 200 µg/mL
MIC90 [1]: 52.1 µg/mL (≈ 124 µM)

Cc1nc2ccccc2cc1-c1nnc(-c2cccs2)o1
IC50 (A549): 99.4 µg/mL
MIC90 [1]: 39.7 µg/mL (≈ 135 µM)

CC(=O)n1ccc(-c2cc3ccccc3nc2C)n1
IC50 (A549): 87 µg/mL
MIC90 [1]: 17.3 µg/mL (≈ 69 µM)

CO[C@H]1/C=C/O[C@@]2(C)Oc3c(C)c(O)c4c(O)c(c(/C=N/N5CCN(C)CC5)c(O)c4c3C2=O)NC(=O)/C(C)=C\C=C\[C@H](C)[C@H](O)[C@@H](C)[C@@H](O)[C@@H](C)[C@H](OC(C)=O)[C@@H]1C [RIFAMPIN]
MIC50 [1]: 2.08 µg/mL (≈ 2.53 µM)
MIC90 [1]: 2.15 µg/mL (≈ 2.61 µM)

Cc1nc2ccccc2cc1-c1nnc(-c2cccnc2)o1
IC50 (A549): 139 µg/mL
MIC90 [1]: 22.7 µg/mL (≈ 78.8 µM)

NNC(=O)c1ccncc1 [ISONIAZID]
MIC50 [1]: 12.1 µg/mL (≈ 88 µM)
MIC90 [1]: 11.8 µg/mL (≈ 85.9 µM)

Cc1nc2ccccc2cc1-c1nnc(-c2coc3ccccc3c2=O)o1
IC50 (A549): 111 µg/mL
MIC90 [1]: 16.8 µg/mL (≈ 47.4 µM)

COc1cc(OC)c(C2CC(c3cc4ccccc4nc3C)=NN2C(C)=O)c(OC)c1 (centres undefined)
IC50 (A549): 171 µM
MIC50 [1]: 57.9 µg/mL (≈ 138 µM)

CCCCCc1nnc(-c2cc3ccccc3nc2C)o1
IC50 (A549): 72.2 µg/mL
MIC90 [1]: > 70 µg/mL

Cc1nc2ccccc2cc1-c1nnc(-c2ccc(C(C)C)cc2)o1
IC50 (A549): 103 µg/mL
MIC90 [1]: 41 µg/mL (≈ 125 µM)
